Data as given in patent US20250179103A1, “6-OXODECAHYDROPYRROLO[1,2-A][1,5]DIAZOCINE AND 6-OXODECAHYDRO-4H-PYRROLO[2,1-D][1,5]THIAZOCINE DERIVATIVES AS STAT3 AND STAT6 MODULATORS FOR THE TREATMENT OF CANCER AND INFLAMMATORY CONDITIONS” (Recludix Pharma, Inc., priority 2022, published 2025).

Tests used:
[1] = tested on: pY641-STAT6 in Peripheral Blood Mononuclear Cells (PBMC); test: MSD-pSTAT-PBMC Assay (pSTAT6, IL-4 stimulated); assay type: cell-based, Human; settings: Homo sapiens, compound 3 hrs, then 1 ng/mL IL-4 for 10 min
How it was run: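 Phospho-STAT readout used MSD electrochemiluminescence with total STAT3 or STAT6 capture in lysates of cryopreserved human PBMCs. Cells had 3 h compound exposure before a 10 min cytokine pulse: IL-6 10 ng/mL for pSTAT3, IL-4 1 ng/mL for pSTAT6. IC50 came from background-subtracted, DMSO-normalised signal, with categories A≤100 nM up to D>3 μM.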

[2] = tested on: pY705-STAT3 in Peripheral Blood Mononuclear Cells (PBMC); test: MSD-pSTAT-PBMC Assay (pSTAT3, IL-6 stimulated); assay type: cell-based, Human; settings: Homo sapiens, compound 3 hrs, then 10 ng/mL IL-6 for 10 min
Description: Cryopreserved Peripheral Blood Mononuclear Cells (PBMC) are from AllCells. Recombinant Human IL-4 and IL-6 are from Peprotech. Mouse monoclonal anti-STAT3 antibody, rabbit monoclonal anti-pY705-STAT3 antibody, rabbit monoclonal Anti-pY641-STAT6 antibody, and lysis buffer are from Cell Signaling Technology (CST). Mouse monoclonal anti-STAT6 antibody is from BioLegend. Assay plates, blocker, and anti-rabbit secondary antibody are from Meso Scale Discovery (MSD).
Cryopreserved PBMCs were thawed out and allowed to recover overnight in IMDM+10% heat-inactivated FBS prior to plating 50,000 (STAT3) or 25,000 (STAT6) cells per well in 96-well U-bottom tissue culture plates. Cells were treated with compound for 3 hrs, then stimulated with 10 ng/mL IL-6 (STAT3) or 1 ng/mL IL-4 (STAT6) for 10 min. Cells were then spun down and washed with ice-cold PBS prior to lysing the cell pellet with 1× lysis buffer (CST) with 1×HALT protease and phosphatase inhibitor cocktail (Thermo). Lysates were transferred to and incubated overnight at 4° C. with shaking in QuickPlex 96-well high bind assay plates (MSD) pre-coated overnight with 30 μL per well of 0.6 μg/mL mouse monoclonal anti-STAT3 antibody (STAT3) or 2 μg/mL mouse monoclonal anti-STAT6 antibody (STAT6) in 1×PBS, and pre-blocked for 1 hour with 3% Blocker-A (MSD). Captured protein in the assay plates were then washed and probed with 25 μL per well of 0.25 μg/ml rabbit monoclonal anti-pY705-STAT3 antibody (STAT3) or […] rabbit monoclonal Anti-pY641-STAT6 antibody (STAT6) in 1% Blocker-A for 1 hour at room temperature with shaking, then washed and probed with 25 ul per well of 1 ug/ml Sulfo-TAG Labeled Goat Anti-Rabbit Antibody (MSD) in 1% Blocker-A for 1 hour at room temperature with shaking. Assay plates were then washed and 150 μL of 1× Read Buffer-T (MSD) was added to each well prior to reading on an SQ120 MSD Plate Reader. Assay signal from each sample was subtracted by the signal from unstimulated control wells and normalized to DMSO control wells. IC50 values were calculated using Graph Pad Prism Dose-Response Nonlinear Regression with variable slope. For both pSTAT3 and pSTAT6 A=≤100 nM; B=>100-1000 nM; C=>1000-3000 nM; and D=>3 μM.

SMILES | IC50 [1] | IC50 [2]
CC(=O)N1CC[C@H]2CC[C@@H](C(=O)N3C[C@H](c4ccccc4)[C@@H](C#N)C3)N2C(=O)[C@@H](NC(=O)c2ccc3ccc(C(F)(F)P(=O)(OCOC(=O)C(C)(C)C)OCOC(=O)C(C)(C)C)cc3c2)C1 (mixture of isomers) [Compound 323, ((((7-(((5S,8S, 10aR)-3-acetyl-8-((rel- trans)-3-cyano-4-phenyl-pyrrolidine-1-carbonyl)-6-oxodecahydro-pyrrolo[1,2-a][1,5]diazocin-5-yl)carbamoyl)naphthalen-2-yl)difluoro-methyl)phos-phoryl)bis(oxy)) bis(methylene) bis(2,2-dimethylpro-panoate)] | ≤ 0.1 µM | 1 to 3 µM
CCCC(=O)SCCOP(=O)(OCCSC(=O)CCC)C(F)(F)c1ccc2ccc(C(=O)N[C@H]3CN(C(=O)c4n[nH]c5ccc(C)cc45)CC[C@H]4CC[C@@H](C(=O)N5CC(c6ccccc6)[C@@H](C#N)C5)N4C3=O)cc2c1 (relative stereo) [Compound 336, S,S′-(((((7-(((5S,8S,10aR)-8-((rel-trans)-3-cyano-4-phenylpyrrolidine-1-carbonyl)-3-(5-methyl-1H-indazole-3-carbonyl)-6-oxodecahydropyrrolo[1,2-a][1,5]diazocin-5-yl)carbamoyl)naphthalen-2-yl)difluoromethyl)phosphoryl)bis(oxy))bis(ethane-2,1-diyl)) dibutanethioate] | ≤ 0.1 µM | 1 to 3 µM
CC(C)(C)C(=O)SCCOP(=O)(OCCSC(=O)C(C)(C)C)C(F)(F)c1ccc2ccc(C(=O)N[C@H]3CN(CC(F)F)CC[C@H]4CC[C@@H](C(=O)N5CC[C@H](c6ccccc6)[C@@H](C#N)C5)N4C3=O)cc2c1 (relative stereo) [Compound 340, S,S′-(((((7-(((5S,8S,10aR)-8-((rel-trans)-3-cyano-4-phenylpiperidine-1-carbonyl)-3-(2,2-difluoroethyl)-6-oxodecahydropyrrolo[1,2-a][1,5]diazocin-5-yl)carbamoyl)naphthalen-2-yl)difluoromethyl)phosphoryl)bis(oxy))bis (ethane-2,1-diyl))bis(2,2-dimethylpropanethioate)] | > 3 µM | > 3 µM
CC(C)CC(=O)SCCOP(=O)(OCCSC(=O)CC(C)C)C(F)(F)c1ccc2ccc(C(=O)N[C@H]3CN(CC(F)F)CC[C@H]4CC[C@@H](C(=O)N5C[C@H](c6cc(F)cc(F)c6)[C@@H](C#N)C5)N4C3=O)cc2c1 (relative stereo) [Compound 341, S,S′-(((((7-(((5S,8S,10aR)-8-((rel-trans)-3-cyano-4-(3,5-difluorophenyl)pyrrolidine-1-carbonyl)-3-(2,2-difluoroethyl)-6-oxodecahydropyrrolo[1,2-a][1,5]diazocin-5-yl)carbamoyl)naphthalen-2-yl)difluoromethyl)phosphoryl)bis(oxy))bis(ethane-2,1-diyl))bis(3-methylbutanethioate)] | 1 to 3 µM | > 3 µM
COC(=O)N1CC[C@H]2CC[C@@H](C(=O)N3C[C@H](c4ccccc4)[C@@H](C#N)C3)N2C(=O)[C@@H](NC(=O)c2cc3cc(C(F)(F)P(=O)(OCOC(=O)C(C)(C)C)OCOC(=O)C(C)(C)C)ccc3s2)C1 (relative stereo) [Compound 349, ((((2-(((5S,8S,10aR)-8-((rel-trans)-3-cyano-4-phenylpyrrolidine-1-carbonyl)-3-(methoxycarbonyl)-6-oxodecahydropyrrolo[1,2-a][1,5]diazocin-5-yl)carbamoyl)benzo[b]thiophen-5-yl)difluoromethyl)phosphoryl)bis(oxy)) bis(methylene) bis(2,2-dimethylpropanoate)] | ≤ 0.1 µM | 0.1 to 1 µM
CCN1CC[C@H]2CC[C@@H](C(=O)N3C[C@@H](C#N)[C@H](c4ccccc4)C3)N2C(=O)[C@@H](NC(=O)c2cc3cc(C(F)(F)P(=O)(OCOC(=O)C(C)(C)C)OCOC(=O)C(C)(C)C)ccc3s2)C1 (single isomer, unassigned) [Compound 281, ((((2-(((5S,8S, 10aR)-8-((3S,4R or 3R,4S)-3-cyano-4-phenyl-pyrrolidine-1-carbonyl)-3-ethyl-6-oxodecahydro-pyrrolo[1,2-a][1,5]diazocin-5-yl)carbamoyl)benzo[b]thiophen-5-yl)difluoro-methyl)phos-phoryl)bis(oxy)) bis(methylene) bis(2,2-dimethyl-propanoate)] | ≤ 0.1 µM | ≤ 0.1 µM
CC(=O)N1CC[C@H]2CC[C@@H](C(=O)N3C[C@@H](C#N)[C@H](c4ccccc4)C3)N2C(=O)[C@@H](NC(=O)c2cc3cc(C(F)(F)P(=O)(OCOC(=O)OC(C)C)OCOC(=O)OC(C)C)ccc3s2)C1 (single isomer, unassigned) [Compound 282, ((((2-(((5S,8S, 10aR)-3-acetyl-8-((3S,4R or 3R,4S)-3-cyano-4-phenyl-pyrrolidine-1-carbonyl)-6-oxodecahydro-pyrrolo[1,2-a][1,5]diazocin-5-yl)carbamoyl)benzo[b]thiophen-5-yl)difluoro-methyl)phos-phoryl)bis(oxy)) bis(methylene) diisopropyl bis(carbonate)] | ≤ 0.1 µM | 1 to 3 µM
CC(=O)N1CC[C@H]2CC[C@@H](C(=O)N3C[C@H](c4ccccc4)[C@@H](C#N)C3)N2C(=O)[C@@H](NC(=O)c2cc3cc(C(F)(F)P(=O)(OCOC(=O)OC(C)C)OCOC(=O)OC(C)C)ccc3s2)C1 (single isomer, unassigned) [Compound 285, ((((2-(((5S,8S, 10aR)-3-acetyl-8-((3R,4S or 3S,4R)-3-cyano-4-phenyl-pyrrolidine-1-carbonyl)-6-oxodecahydro-pyrrolo[1,2-a][1,5]diazocin-5-yl)carbamoyl)benzo[b]thiophen-5-yl)difluoro-methyl)phos-phoryl)bis(oxy)) bis(methylene) diisopropyl bis(carbonate)] | ≤ 0.1 µM | 0.1 to 1 µM
CC(C)OC(=O)[C@H](C)NP(=O)(Cc1ccc2sc(C(=O)N[C@H]3CN(Cc4ccn5ccnc5c4)CC[C@H]4CC[C@@H](C(=O)N5CC(c6cccnc6)C5)N4C3=O)cc2c1)NCc1ccccc1 (stereo partly drawn) [Compound 333] |  | > 3 µM
CC(C)OC(=O)OCOP(=O)(Cc1ccc2sc(C(=O)N[C@H]3CN(Cc4ccn5ccnc5c4)CC[C@H]4CC[C@@H](C(=O)N5CC(c6cccnc6)C5)N4C3=O)cc2c1)OCOC(=O)OC(C)C [Compound 338, ((((2-(((5S,8S,10aR)-3-(imidazo[1,2-a]pyridin-7-ylmethyl)-6-oxo-8-(3-(pyridin-3-yl)azetidine-1-carbonyl)decahydropyrrolo[1,2-a][1,5]diazocin-5-yl)carbamoyl)benzo[b]thiophen-5-yl)methyl)phosphoryl)bis (oxy))bis(methylene)diisopropylbis(carbonate)] |  | 0.1 to 1 µM
CCCC(=O)SCCOP(=O)(OCCSC(=O)CCC)C(F)(F)c1ccc2ccc(C(=O)N[C@H]3CN(C(=O)c4noc5ccc(C)cc45)CC[C@H]4CC[C@@H](C(=O)N5C[C@H](c6ccn(C)c(=O)c6)CC56CC6)N4C3=O)cc2c1 [Compound 439, S,S′-((((difluoro(7 (((5S,8S,10aR)-8-((S)-6-(1-methyl-2-oxo-1,2-dihydropyridin-4-yl)-4-azaspiro[2.4]heptane-4-carbonyl)-3-(5-methylbenzo [d]isoxazole-3-carbonyl)-6-oxodeca-hydropyrrolo [1,2-a][1,5]diazocin-5-yl)carbamoyl)naphthalen-2-yl)methyl)phosphoryl)bis (oxy))bis (ethane-2,1-diyl)) dibutanethioate] | ≤ 0.1 µM | 
CCCOC(=O)[C@H](C)NP(=O)(Oc1ccccc1)C(F)c1ccc2ccc(C(=O)N[C@H]3CN(C(=O)c4noc5ccc(C)cc45)CC[C@H]4CC[C@@H](C(=O)N5C[C@@H](C)O[C@@H](C)C5)N4C3=O)cc2c1 (stereo partly drawn) [Compound 440, propyl (((7-(((5S,8S,10aR)-8-((2R,6S)-2,6-dimethyl-morpholine-4-carbonyl)-3-(5-methylbenzo [d]isoxazole-3-carbonyl)-6-oxodeca-hydropyrrolo [1,2-a][1,5]diazocin-5-yl)carbamoyl)naphthalen-2-yl)fluoromethyl) (phenoxy)phosphoryl)-L-alaninate] | ≤ 0.1 µM | 
CCCOC(=O)[C@H](C)NP(=O)(Oc1ccccc1)C(F)c1ccc2sc(C(=O)N[C@H]3CN(CC(F)F)CC[C@H]4CC[C@@H](C(=O)N5C[C@@H](C#N)[C@H](c6ccccc6)C5)N4C3=O)cc2c1 (stereo partly drawn) [Compound 441] | ≤ 0.1 µM | 
